The values that follow come from patent US8962628B2, “Herbicidal 5H-quinoxaline-6-one derivatives detailed description” (Syngenta Limited, priority 2010, dated 2015).

The structures appear in SMILES notation.

Format in all cases: in vivo
The test system of experiment [1] is Setaria faberi. In words: Herbicidal action post-emergence (Example B2). To be noted: post-emergence spray with adjuvant X-77, rate 500 g/ha, evaluated after 15 days; 10=total damage to plant, 0=no damage to plant. As to the method: (§1) Seeds of crop and representative weed species were sown in standard soil in pots. After cultivation for 14 days under controlled conditions in a glasshouse (at 22/16° C., day/night; 16 hours light; 65% humidity), the plants were sprayed. The spray solution was prepared by dissolving the technical active ingredient in acetone containing 10.56 wt % Emulsogen EL, 42.22 wt % N-methylpyrrolidone and 2.22 wt % DPG-monoethyl ether to give a 5% stock solution. This was then diluted with water containing 0.2% (v/v) of the adjuvant X-77 to give the desired treatment concentration.
(§2) The test plants were then grown on under controlled conditions in a glasshouse (at 22/16° C., day/night; 16 hours light; 65% humidity) and watered twice daily. After 15 days the test was evaluated (10=total damage to plant; 0=no damage to plant).

Experiment [2] deals with Echinochloa crus-galli. In words: Herbicidal action post-emergence (Example B2). To be noted: post-emergence spray with adjuvant X-77, rate 500 g/ha, evaluated after 15 days; 10=total damage to plant, 0=no damage to plant. On the procedure:
as §1, §2

The test system of experiment [3] is Amaranthus retroflexus. The experiment is described as follows: Herbicidal action post-emergence (Example B2). Particulars: post-emergence spray with adjuvant X-77, rate 500 g/ha, evaluated after 15 days; 10=total damage to plant, 0=no damage to plant. On the procedure: as §1, §2
Experiment [4] relates to Ipomea hederaceae. In words: Herbicidal action post-emergence (Example B2). Particulars: post-emergence spray with adjuvant X-77, rate 500 g/ha, evaluated after 15 days; 10=total damage to plant, 0=no damage to plant. On the procedure: as §1, §2
Experiment [5] deals with Solanum nigrum. The experiment is described as follows: Herbicidal action post-emergence (Example B1). Particulars: post-emergence spray, rate 1000 g/ha, evaluated after 13 days; 10=total damage to plant, 0=no damage to plant. As to the method: (§3) Seeds of a variety of test species were sown in standard soil in pots. After 8 days cultivation (post-emergence) under controlled conditions in a glasshouse (at 24/16° C., day/night; 14 hours light; 65% humidity), the plants were sprayed with an aqueous spray solution derived from the formulation of the technical active ingredient in acetone/water (50:50) solution containing 0.5% Tween 20 (polyoxyethelyene sorbitan monolaurate, CAS RN 9005-64-5). The test plants were then grown under controlled conditions in a glasshouse (at 24/16° C., day/night; 14 hours light; 65% humidity) and watered twice daily. After 13 days, the test was evaluated (10=total damage to plant; 0=no damage to plant).

Experiment [6] has as its system Setaria faberi. In words: Herbicidal action post-emergence (Example B1). Particulars: post-emergence spray, rate 1000 g/ha, evaluated after 13 days; 10=total damage to plant, 0=no damage to plant. On the procedure:
as §3

Experiment [7] has as its system Echinochloa crus-galli. In words: Herbicidal action post-emergence (Example B1). Particulars: post-emergence spray, rate 1000 g/ha, evaluated after 13 days; 10=total damage to plant, 0=no damage to plant. As to the method: as §3
Experiment [8] deals with Amaranthus retroflexus. The experiment is described as follows: Herbicidal action post-emergence (Example B1). To be noted: post-emergence spray, rate 1000 g/ha, evaluated after 13 days; 10=total damage to plant, 0=no damage to plant. As to the method:
as §3

The test system of experiment [9] is Ipomea hederaceae. In words: Herbicidal action post-emergence (Example B1). Particulars: post-emergence spray, rate 1000 g/ha, evaluated after 13 days; 10=total damage to plant, 0=no damage to plant. As to the method: as §3

In the case of `CC1(C)C(=O)C(c2ccccc2C(F)(F)F)C(=O)c2nccnc21` (stereo not shown) [Compound E1, 8,8-dimethyl-6-(2-trifluoromethyl-phenyl)-8H-quinoxaline-5,7-dione], the “SETFA damage to plant (score 0-10)” value in experiment [1] worked out at 7; in [6], 9. The “ECHCG damage to plant (score 0-10)” value worked out at 3 in [2] and 9 in experiment [7]. The “AMARE damage to plant (score 0-10)” value in experiment [3] and in experiment [8] was 10 each time. The “IPOHE damage to plant (score 0-10)” value in experiment [4] came to 8; in experiment [9], 9. Besides, the “SOLNI damage to plant (score 0-10)” value in experiment [5] was found to be 10.
In the case of `CC(C)C(=O)OC1=C(c2ccccc2C(F)(F)F)C(=O)C(C)(C)c2nccnc21` [Compound F1, isobutyric acid 8,8-dimethyl-7-oxo-6-(2-trifluoromethyl-phenyl)-7,8-dihydro-quinoxalin-5-yl ester], the “SETFA damage to plant (score 0-10)” value in [1] was determined as 8. The “ECHCG damage to plant (score 0-10)” value in experiment [2] was 8. Moreover, in experiment [3], the “AMARE damage to plant (score 0-10)” value was 10. Besides, the “IPOHE damage to plant (score 0-10)” value in [4] was found to be 8.
